In publication PMC2566937 (Journal of medicinal chemistry, 2008):
Several values for one entry are separate records, joined by “and”; a condition that tells them apart may be missing. Identical values can stand only once. Entries after “also recorded” stand apart in the source; their conditions may differ. Marks after values point to notes of the source that are not given here.

What was measured:
[1] = tested on: GABA recognition site (GABAA receptors) in native cerebellar membranes; experiment: [3H]muscimol binding, rat cerebellar membranes; conditions: for pseudo-Hill coefficient η, cerebellum: against 6 nM [3H]muscimol, mean ± S.E.M.
[2] = tested on: GABA recognition site (GABAA receptors) in native cortical membranes; experiment: [3H]muscimol binding, rat cortical membranes; conditions: for Inhibition of muscimol binding at 100 μM (criterion for full binding analysis): cortical and cerebellar membranes (tissue not given); for pseudo-Hill coefficient η, cortex: against 6 nM [3H]muscimol, mean ± S.E.M.
α1R66Cβ2 GABAA receptor = α1R66Cβ2 GABAA receptor (Rattus norvegicus, UniProt P62813+P63138, R93C)
α1F64Cβ2 GABAA receptor [3] = target: T1, α1F64Cβ2 GABAA receptor (Rattus norvegicus, UniProt P62813+P63138, F91C)
α1β2 wt GABAA receptor [4] = target: T2, α1β2 wt GABAA receptor (Rattus norvegicus, UniProt P62813+P63138); experiment: Cysteine modification by MTS reagent, oocyte voltage clamp, wt; type: cell-based; conditions: data not shown
α1β2 wt GABAA receptor [5] = target: T2, α1β2 wt GABAA receptor; type: cell-based
α4β3γ2 GABAA receptor = α4β3γ2 GABAA receptor (Rattus norvegicus, UniProt P28471+P63079); conditions: for Current induced by compound alone, % of maximal GABA-induced current: 1 mM compound
α1β3γ2 GABAA receptor [6] = target: T3, α1β3γ2 GABAA receptor (Rattus norvegicus, UniProt P62813+P63079); conditions: for Current induced by compound alone, % of maximal GABA-induced current: 1 mM compound
α3β3γ2 GABAA receptor [7] = target: T4, α3β3γ2 GABAA receptor (Rattus norvegicus, UniProt P20236+P63079); type: cell-based; conditions: 1 mM compound co-applied with approx. GABA EC20–25
α1S68Cβ2 GABAA receptor = α1S68Cβ2 GABAA receptor (Rattus norvegicus, UniProt P62813+P63138, S95C); type: cell-based; conditions: read-out: Inhibition of the EC20 GABA current
α1F64Cβ2 GABAA receptor [8] = target: T1, α1F64Cβ2 GABAA receptor; type: cell-based
α3β3γ2 GABAA receptor [9] = target: T4, α3β3γ2 GABAA receptor
α5β3γ2 GABAA receptor = α5β3γ2 GABAA receptor (Rattus norvegicus, UniProt P19969+P63079)
α1β3γ2 GABAA receptor [10] = target: T3, α1β3γ2 GABAA receptor; type: cell-based; conditions: 1 mM compound co-applied with approx. GABA EC20–25
[11] = read-out: Inhibition of the EC20 GABA current

Structure (SMILES) | pseudo-Hill coefficient η, cerebellum [1] | Inhibition of muscimol binding at 100 μM (criterion for full binding analysis) [2] | pseudo-Hill coefficient η, cortex [2] | Current induced by compound alone, % of maximal GABA-induced current (α4β3γ2 GABAA receptor) | Current induced by compound alone, % of maximal GABA-induced current (α1β3γ2 GABAA receptor [6]) | Potentiation of GABA-induced current (α3β3γ2 GABAA receptor [7]) [%] | further results
Cl.NCCc1nnc(O)o1 [5g] | 0.92 and 0.92 ± 0.11 | at least 30% | 0.63 and 0.63 ± 0.06 |  |  |  | 
CS(=O)(=S)OCCNC(=O)CCCC[C@@H]1SC[C@@H]2NC(=O)N[C@@H]21 (stereo partly shown) [MTSEA-biotin] |  |  |  |  |  |  | Inhibition of subsequent GABA test currents, MTSEA-biotin alone (control) (α1R66Cβ2 GABAA receptor; 30 μM MTSEA-biotin, α1R66Cβ2, n = 2): 87% and 100%
CS(=O)(=O)SCCS(=O)(=O)O [MTSES^−, 2-sulfonatoethyl methanethiosulfonate] |  |  |  |  |  |  | Inhibition of subsequent GABA EC50 current, MTSES− alone (control) (α1R66Cβ2 GABAA receptor; 12 s, 2 mM MTSES−, α1R66Cβ2): 91 ± 3%; Inhibition of GABA EC50 currents after complete reaction with MTS reagent (α1R66Cβ2 GABAA receptor; α1R66C + β2, % ± S.E.M.): 62 ± 3 (4) %; Second-order reaction rate constant with the engineered cysteine (α1R66Cβ2 GABAA receptor; α1R66Cβ2): 48 ± 7 M⁻¹ s⁻¹; Reduction in subsequent GABA EC50 test currents, MTSES− alone (control) (α1F64Cβ2 GABAA receptor [3]; 12 s, 10 μM MTSES−, α1F64Cβ2): 87% and 87 ± 3%; Inhibition of GABA EC50 currents after complete reaction with MTS reagent (α1F64Cβ2 GABAA receptor [3]; α1F64C + β2, % ± S.E.M.): 89 ± 3 (4) %; Effect of MTS reagent on the GABA current (α1β2 wt GABAA receptor [4]): did not affect the GABA current
C=C(C)[C@@H]1[C@H]2OC(=O)[C@@H]1[C@]1(O)C[C@H]3O[C@]34C(=O)O[C@H]2[C@]14C [picrotoxinin, reference compound] |  |  |  |  |  |  | inhibition at 100 µM (α1β2 wt GABAA receptor [5]; read-out: Inhibition of 6a-induced currents): 80 to 90%
Cl.Oc1nnc(C2CCNCC2)o1 [5a, 5-Piperidin-4-yl-3H-[1,3,4]oxadiazol-2-one Hydrochloride] | 0.79 ± 0.06 | at least 30% | 0.86 ± 0.10 | less than 10% | less than 10% | 22 ± 11 | Effect of repeated application on subsequent GABA currents (α1R66Cβ2 GABAA receptor; repeated 10 s applications of 30 mM, α1R66Cβ2): did not decrease the subsequent GABA test currents; also recorded: did not irreversible alter the subsequent GABA currents
Cl.NCc1nnc(S)o1 [6d, 5-Aminomethyl-3H-[1,3,4]oxadiazol-2-thione Hydrochloride] | 0.96 ± 0.12 | at least 30% | 0.92 ± 0.05 |  |  |  | 
Cl.Sc1nnc(C2CCNCC2)o1 [6a, 5-Piperidin-4-yl-3H-[1,3,4]oxadiazol-2-thione Hydrochloride] | 1.03 ± 0.08 | at least 30% | 0.99 ± 0.09 | less than 10% | less than 10% | 114 ± 8 | inhibition at 1000 µM (α1S68Cβ2 GABAA receptor): > 90%; 6a EC50 relative to wt (α1F64Cβ2 GABAA receptor [8]): 0.6 fold; inhibition at 1000 µM (α1F64Cβ2 GABAA receptor [8]; [11]): > 90%; inhibition at 1000 µM (α1β2 wt GABAA receptor [5]; [11]): > 90%
Oc1nnc(C2CCCCC2)o1 [9d, 5-Cyclohexyl-3H-[1,3,4]oxadiazole-2-one] |  |  |  |  |  |  | Percent inhibition of [3H]muscimol binding, cerebellum, 100 μM ([1]; 100 μM test compound, well-washed rat cerebellum membranes, mean ± S.D.): −11 ± 11 (3) %
Cl.NCc1nnc(O)o1 [5d, 5-Aminomethyl-3H-[1,3,4]oxadiazol-2-one Hydrochloride] | 0.90 ± 0.21 | at least 30% | 1.12 ± 0.13 |  |  |  | EC50 (α3β3γ2 GABAA receptor [9]): 1000 µM; Hill coefficient (direct activation) (α3β3γ2 GABAA receptor [9]; α3β3γ2, value of an extrapolated dose-response curve): 0.81 ^*; Hill coefficient (direct activation) (α4β3γ2 GABAA receptor): 1.56 ± 0.11; Hill coefficient (direct activation) (α1β3γ2 GABAA receptor [6]): 0.99 ± 0.05; Hill coefficient (direct activation) (α5β3γ2 GABAA receptor): 1.31 ± 0.12
Cc1nnc(C2CCNCC2)o1.Cl [compound 19, 4-(5-Methyl-[1,3,4]oxadiazol-2-yl)-piperidine Hydrochloride] | 0.91 ± 0.05 | at least 30% | 0.88 ± 0.08 | less than 10% | less than 10% | 11 | Current induced by compound alone, % of maximal GABA-induced current (α3β3γ2 GABAA receptor [9]; 1 mM compound, α3β3γ2): less than 10%; Potentiation of GABA-induced current (α1β3γ2 GABAA receptor [10]): 21%; Current induced by compound alone, % of maximal GABA-induced current (α5β3γ2 GABAA receptor; 1 mM compound): less than 10%
